Data on one compound can be found in paper PMC9090282, “Characterization of Calcium-Dependent Protein Kinase 2A, a Potential Drug Target Against Cryptosporidiosis” (Frontiers in Microbiology, 2022).

One series deals with HCT-8 cells. Put plainly: Cytotoxicity, Cell Titer 96 Aqueous One Solution Cell Proliferation Assay. The format is cell-based, human. On the procedure:
(§1) Using molecular docking of the simulated CpCDPK2A structure, small molecules were selected from the ChemDiv database. The binding energy values of ligands to proteins were calculated based on ligand efficiency, Coulomb energy, Van der waals energy, and H-bond energy. Candidate small molecules were purchased from TopScience Ltd. (Shanghai, China) and screened for activities against C. parvum development in vitro using qRT-PCR ([Zhang et al., 2012]). Briefly, HCT-8 monolayers (2 × 10^4 cells/well) grown in 96 well plates were inoculated with hypochlorite-treated oocysts (2 × 10^4 oocysts/well) containing dilutions of compounds (10 μM) or DMSO (1%). The parasites were allowed to invade host cells for 3 h, and uninvaded parasites were washed off with the medium change. […] The levels of 18S rRNA transcripts of C. parvum and HCT-8 cells were measured by using the HiScript II One Step qRT-PCR SYBR Green kit (Vazyme Biotech, Nanjing, China) as described ([Zhang et al., 2012]). The parasite loads in cultures were calculated using the ΔΔCT method ([Cai et al., 2005]). […] The cytotoxicity of compounds was evaluated by the Cell Titer 96 Aqueous One Solution Cell Proliferation Assay (Promega) as described ([Pobsuk et al., 2019]). The half-maximal toxic concentration (TC50) values on host cells were calculated using Graphpad Prism 7 (Graphpad software, San Diego, United States).

The subject of series [1] is Cryptosporidium parvum. Put plainly: Growth experiment: compound added at 3 h post-infection for 41 h, qRT-PCR. The format is cell-based. The settings on record: read-out: EC50 on parasite loads, compound added after invasion. How it is done: (§2) Candidate anti-cryptosporidial compounds were further examined for their effects on C. parvum invasion or development assays. In invasion experiments, HCT-8 cells plated on coverslips were infected with bleached oocysts and cultured with active compounds for 3 h at 37°C. In growth experiments, monolayers were infected with bleached oocysts, washed twice with PBS at 3 h post-infection, and returned to culture in fresh HCT-8 medium with active compounds for 41 h. RNA was collected from each well at specified time point to assess the anti-cryptosporidial activities of these compounds using qRT-PCR method described above. The addition of 140 μM paromomycin was used as a positive control. Parasite enumeration by immunofluorescence microscopy was used to verify the efficacy of active compound K292-0423 against C. parvum development in vitro.

Series [2] concerns Cryptosporidium parvum. Description: Parasite enumeration by immunofluorescence microscopy in treated HCT-8 cultures. The format is cell-based. The settings on record: 10 μM; positive control paromomycin 140 μM. On the procedure: as §2
Series [3] relates to Cryptosporidium parvum. Put plainly: Anti-cryptosporidial activity on C. parvum development in HCT-8 cultures by qRT-PCR (compound present during invasion and growth, 44 h). The class given is cell-based. How it is done: as §1
Series [4] has as its system Cryptosporidium parvum. Put plainly: Invasion experiment: HCT-8 cells infected with oocysts and cultured with compound for 3 h, qRT-PCR. The format is cell-based. The settings on record: 0.01 to 20 μM, compound only during invasion phase (3 h). On the procedure:
as §2

In another series the target is rCpCDPK2A (Cryptosporidium parvum, UniProt Q5CTY5). Put plainly: NADH-coupled ATPase assay of rCpCDPK2A enzyme activity. The class given is biochemical. How it is done: The enzymatic activity of rCpCDPK2A was measured using the […] NADH-coupled ATPase assay as described previously ([Rutaganira et al., 2017]). The kinase reaction was conducted at 30°C for 40 min in 100 mM HEPES, pH 8.0, 150 mM NaCl, 10 mM MgCl2, 1 mM CaCl2, 50 mM KCl, 10 mM DTT, 2 μg/ml BSA, and 0.01% Tween 20. The typical assay of 100 μl reactions contained 50 μM Syntide-2, 50 μM ATP, 150 μM NADH, 300 μM phosphoenolpyruvate (PEP), and a mixture of pyruvate kinase (4 units/ml) and lactate dehydrogenase (6 units/ml; Sigma). The reaction was initiated with the addition of 100 nM rCpCDPK2A. A recombinant insulinase-like protease of C. parvum, INS-16, was used as the negative control. To assess the inhibitory effect on enzymatic activities of rCpCDPK2A, six active compounds were added to the reaction at 10 μM in duplicate. Compounds with significant inhibition rates were selected to determine the half-maximal inhibition concentration (IC50) using final concentrations of 1 μM to 20 μM. The IC50 values were calculated using Graphpad Prism 7.
rCpCDPK2A, sequence (Q5CTY5 entry or part of it): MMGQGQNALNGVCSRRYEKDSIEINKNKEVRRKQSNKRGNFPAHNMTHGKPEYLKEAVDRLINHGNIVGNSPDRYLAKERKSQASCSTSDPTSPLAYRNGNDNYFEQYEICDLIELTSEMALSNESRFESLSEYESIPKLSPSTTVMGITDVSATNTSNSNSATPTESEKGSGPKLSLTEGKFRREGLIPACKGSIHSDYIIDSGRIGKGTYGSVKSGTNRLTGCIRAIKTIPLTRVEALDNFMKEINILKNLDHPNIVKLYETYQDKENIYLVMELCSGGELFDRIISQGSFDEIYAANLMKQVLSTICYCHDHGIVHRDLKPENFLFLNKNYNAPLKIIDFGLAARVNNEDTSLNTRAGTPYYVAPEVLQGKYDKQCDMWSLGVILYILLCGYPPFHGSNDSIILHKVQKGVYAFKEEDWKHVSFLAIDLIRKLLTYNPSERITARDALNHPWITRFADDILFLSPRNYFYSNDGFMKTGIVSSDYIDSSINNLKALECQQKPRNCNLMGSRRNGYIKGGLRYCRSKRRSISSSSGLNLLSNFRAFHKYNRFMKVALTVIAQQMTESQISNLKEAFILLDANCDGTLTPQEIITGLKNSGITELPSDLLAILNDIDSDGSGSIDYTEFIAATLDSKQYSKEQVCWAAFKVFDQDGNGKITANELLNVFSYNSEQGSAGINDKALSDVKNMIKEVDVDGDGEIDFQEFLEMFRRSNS

As for `O=C(CSc1nc2ccsc2c(=O)n1-c1ccc(Cl)cc1)NCc1ccco1` [K292-0423], the “TC50 (half-maximal toxic concentration)” value in the series on HCT-8 cells was above 75 µM. Besides, the EC50 with Cryptosporidium parvum [1] stood at 3.16 µM; in the series with Cryptosporidium parvum [3] (dilutions 10 nM to 20 μM, read-out: EC50 (half-maximal effective concentration) on C. parvum growth) it was 1130 nM. Besides, the “Inhibitory effect by direct enumeration of parasites” value with Cryptosporidium parvum [2] was “inhibitory effects similar to that by the positive control paromomycin”. The inhibition at 10 µM in the series on Cryptosporidium parvum [3] (10 μM, read-out: Inhibition of parasite growth in primary screening) is above 60%; at rCpCDPK2A (10 μM compound, read-out: Inhibition rate of rCpCDPK2A activity), 73.1%. Also, in the series with Cryptosporidium parvum [4], the “Inhibition rates of invasion of HCT-8 cells by C. parvum” value was −24.27 to 37.66%. Besides, on rCpCDPK2A (concentrations 1 μM to 20 μM, read-out: IC50 on CpCDPK2A enzyme), the IC50 was 8.42 µM.
